Test results reported in paper PMC10931625, “EsigPBP3 Was the Important Pheromone-Binding Protein to Recognize Male Pheromones and Key Eucalyptus Volatiles” (International Journal of Molecular Sciences, 2024).

Target: recombinant EsigPBP3
Experiment: fluorescence competitive binding assay (FCBA) with 1-NPN probe
Parameters: species or system Endoclita signifer
Settings: for IC50: displacement of 1-NPN, 20 mM Tris-HCl pH 7.4, ligands 2-24 µM; for IC50 / Ki: 2 µM EsigPBP3 and 2 µM 1-NPN; for Ki: from IC50 by Ki = [IC50]/(1 + [1-NPN]/K1-NPN)
Protocol: Fluorescence competition assays were conducted using 1-NPN ([…]) as a selective fluorescence probe to measure the affinity of ligands for binding to the recombinant EsigPBP3 [49]. […] The emission wavelength range was set from 380 nm to 520 nm. After the fluorescence intensity stabilized, scans were performed and the emission was recorded (both excitation and emission slit widths were set to 10 nm). A final concentration of 2 μM EsigPBP3 solution was prepared in 20 mM Tris-HCl buffer (pH 7.4), and the ligands were dissolved in chromatographically pure methanol as 1 mM stock solutions. […] The compound was added proportionally to a mixture with a final concentration of 2 µM EsigPBP3 protein and 2 µM 1-NPN. The ability of ligands to bind to the EsigPBP3 protein was monitored by the decrease in fluorescence intensity.

| Compound | IC50 [µM] | Ki (pH 7.4) [µM] | Kd (binding curve and Scatchard plot, 2 µM EsigPBP3, 1-NPN 2-24 µM, pH 7.4, read-out: dissociation constant (Kd) of EsigPBP3 for the reporter ligand 1-NPN) [µM] |
| --- | --- | --- | --- |
| C=C1C2CCC(C2)C1(C)C (stereo not shown) [camphene] | 9.85 | 6.61 |  |
| C=C1CCC2CC1C2(C)C (stereo not drawn) [(−)-β-pinene] | 4.77 | 3.2 |  |
| Cc1cc(C)cc(C)c1 [1,3,5-trimethyl-benzen] | > 24 | > 16.1 |  |
| CCc1ccc(C(C)=O)cc1 [4-ethylacetophenone] | 8.26 | 5.55 |  |
| c1ccc(Nc2cccc3ccccc23)cc1 [1-NPN, reference compound] |  |  | 3.36 |
| CC12CCC(CC1)C(C)(C)O2 [eucalyptol] | > 24 | > 16.1 |  |
| CC(C)(O)c1ccccc1 [2-phenyl-2-propanol] | > 24 | > 16.1 |  |

Further lines, with some results ahead:

| IC50 [µM] | Ki (pH 7.4) [µM] | Compound | Kd (binding curve and Scatchard plot, 2 µM EsigPBP3, 1-NPN 2-24 µM, pH 7.4, read-out: dissociation constant (Kd) of EsigPBP3 for the reporter ligand 1-NPN) [µM] |
| --- | --- | --- | --- |
| 7.85 | 5.27 | CC1=CCC2CC1C2(C)C (stereo not drawn) [(−)-α-pinene] |  |
| 5.32 | 3.57 | CC1=CC[C@H](C(C)C)C=C1 [α-phellandrene] |  |
| 7.19 | 4.83 | CCc1ccccc1CC [benzene, 1,2-diethyl-] |  |
